Calls of active or inactive are those of the source. The calls are words filed in the database; no cut-off is given here.
Tests used:
[1] = tested on: HMEC; test: Cytotoxicity against human HMEC cells assessed as inhibition of cell proliferation measured after 48 hrs by MTT assay; assay type: cell-based
[2] = tested on: MCF7; test: Anticancer activity against human MCF7 cells assessed as inhibition of cell proliferation measured after 48 hrs by MTT assay; assay type: functional, cell-based; conditions: MCF7, 48 h
[3] = tested on: MRC5; test: Cytotoxicity against human MRC5 cells assessed as inhibition of cell proliferation measured after 48 hrs by MTT assay; assay type: cell-based; conditions: MRC5, 48 h
[4] = tested on: L02; test: Cytotoxicity against human HL7702 cells assessed as inhibition of cell proliferation measured after 48 hrs by MTT assay; assay type: cell-based; conditions: L02, 48 h
[5] = tested on: HepG2; test: Anticancer activity against human HepG2 cells assessed as inhibition of cell proliferation measured after 48 hrs by MTT assay; assay type: functional, cell-based; conditions: HepG2, 48 h
[6] = tested on: A549; test: Anticancer activity against human A549 cells assessed as inhibition of cell proliferation measured after 48 hrs by MTT assay; assay type: functional, cell-based; conditions: A549, 48 h
[7] = tested on: HeLa; test: Anticancer activity against human HeLa cells assessed as inhibition of cell proliferation measured after 48 hrs by MTT assay; assay type: functional, cell-based
[8] = Cytotoxicity against human H8 cells assessed as inhibition of cell proliferation measured after 48 hrs by MTT assay; assay type: cell-based
[9] = tested on: HepG2; test: Cell cycle arrest in human HepG2 cells assessed as accumulation at G2/M phase at 5 uM after 24 hrs by propidium staining based flow cytometry analysis relative to control; assay type: functional
[10] = tested on: HepG2; test: Cell cycle arrest in human HepG2 cells assessed as accumulation at G2/M phase at 20 uM after 36 hrs by propidium staining based flow cytometry analysis relative to control; assay type: functional
[11] = tested on: L02; test: Cell cycle arrest in human HL7702 cells assessed as accumulation at G2/M phase at 50 uM after 42 hrs by propidium staining based flow cytometry analysis relative to control; conditions: l02, 42 h
[12] = tested on: L02; test: Cell cycle arrest in human HL7702 cells assessed as accumulation at G2/M phase at 5 uM after 30 hrs by propidium staining based flow cytometry analysis; conditions: l02, 30 h
[13] = tested on: HepG2; test: Induction of apoptosis in human HepG2 cells assessed as apoptotic cells at 20 uM measured after 42 hrs by Annexin-V/propidium iodide staining based flow cytometry analysis relative to control; assay type: functional
[14] = tested on: L02; test: Induction of apoptosis in human HL7702 cells assessed as apoptotic cells at 50 uM measured after 42 hrs by Annexin-V/propidium iodide staining based flow cytometry analysis relative to control; assay type: cell-based; conditions: l02, 42 h
[15] = Acute toxicity in C57BL6 mouse assessed as lethality at 100 mg/kg, ip administered for 4 days; assay type: organism-based; conditions: in vivo, 96 h
[16] = Acute toxicity in ip dosed C57BL6 mouse assessed as mouse survival administered as single dose for 3 days and monitored for 20 days by Bliss method; assay type: organism-based; conditions: in vivo
[17] = tested on: HepG2; test: Antitumor activity against human HepG2 xenografted in ip dosed BALB/c nude mouse administered for 20 days and measured after 20 days by electronic caliper method; assay type: functional; conditions: 480 h
[18] = tested on: HepG2; test: Antitumor activity against human HepG2 xenografted in BALB/c nude mouse assessed as tumor volume at 30 mg/kg, ip administered for 20 days and measured after 20 days by electronic caliper method (reference value: 960.20 +/- 32.10 mm3); assay type: functional
[19] = tested on: HepG2; test: Antitumor activity against human HepG2 xenografted in BALB/c nude mouse assessed as tumor growth inhibition at 30 mg/kg, ip administered for 20 days and measured after 20 days by electronic caliper method relative to control; assay type: functional; conditions: 480 h, read-out: TGI
[20] = biological target: DNA topoisomerase 2-alpha (Homo sapiens) (UniProt P11388); test: Inhibition of human topoisomerase-2alpha mediated decatenation at 25 uM using kinetoplast DNA as substrate after 30 mins in presence of ATP by ethidium bromide staining-based UV imaging analysis
Sequence of DNA topoisomerase 2-alpha (Homo sapiens) (P11388 whole entry): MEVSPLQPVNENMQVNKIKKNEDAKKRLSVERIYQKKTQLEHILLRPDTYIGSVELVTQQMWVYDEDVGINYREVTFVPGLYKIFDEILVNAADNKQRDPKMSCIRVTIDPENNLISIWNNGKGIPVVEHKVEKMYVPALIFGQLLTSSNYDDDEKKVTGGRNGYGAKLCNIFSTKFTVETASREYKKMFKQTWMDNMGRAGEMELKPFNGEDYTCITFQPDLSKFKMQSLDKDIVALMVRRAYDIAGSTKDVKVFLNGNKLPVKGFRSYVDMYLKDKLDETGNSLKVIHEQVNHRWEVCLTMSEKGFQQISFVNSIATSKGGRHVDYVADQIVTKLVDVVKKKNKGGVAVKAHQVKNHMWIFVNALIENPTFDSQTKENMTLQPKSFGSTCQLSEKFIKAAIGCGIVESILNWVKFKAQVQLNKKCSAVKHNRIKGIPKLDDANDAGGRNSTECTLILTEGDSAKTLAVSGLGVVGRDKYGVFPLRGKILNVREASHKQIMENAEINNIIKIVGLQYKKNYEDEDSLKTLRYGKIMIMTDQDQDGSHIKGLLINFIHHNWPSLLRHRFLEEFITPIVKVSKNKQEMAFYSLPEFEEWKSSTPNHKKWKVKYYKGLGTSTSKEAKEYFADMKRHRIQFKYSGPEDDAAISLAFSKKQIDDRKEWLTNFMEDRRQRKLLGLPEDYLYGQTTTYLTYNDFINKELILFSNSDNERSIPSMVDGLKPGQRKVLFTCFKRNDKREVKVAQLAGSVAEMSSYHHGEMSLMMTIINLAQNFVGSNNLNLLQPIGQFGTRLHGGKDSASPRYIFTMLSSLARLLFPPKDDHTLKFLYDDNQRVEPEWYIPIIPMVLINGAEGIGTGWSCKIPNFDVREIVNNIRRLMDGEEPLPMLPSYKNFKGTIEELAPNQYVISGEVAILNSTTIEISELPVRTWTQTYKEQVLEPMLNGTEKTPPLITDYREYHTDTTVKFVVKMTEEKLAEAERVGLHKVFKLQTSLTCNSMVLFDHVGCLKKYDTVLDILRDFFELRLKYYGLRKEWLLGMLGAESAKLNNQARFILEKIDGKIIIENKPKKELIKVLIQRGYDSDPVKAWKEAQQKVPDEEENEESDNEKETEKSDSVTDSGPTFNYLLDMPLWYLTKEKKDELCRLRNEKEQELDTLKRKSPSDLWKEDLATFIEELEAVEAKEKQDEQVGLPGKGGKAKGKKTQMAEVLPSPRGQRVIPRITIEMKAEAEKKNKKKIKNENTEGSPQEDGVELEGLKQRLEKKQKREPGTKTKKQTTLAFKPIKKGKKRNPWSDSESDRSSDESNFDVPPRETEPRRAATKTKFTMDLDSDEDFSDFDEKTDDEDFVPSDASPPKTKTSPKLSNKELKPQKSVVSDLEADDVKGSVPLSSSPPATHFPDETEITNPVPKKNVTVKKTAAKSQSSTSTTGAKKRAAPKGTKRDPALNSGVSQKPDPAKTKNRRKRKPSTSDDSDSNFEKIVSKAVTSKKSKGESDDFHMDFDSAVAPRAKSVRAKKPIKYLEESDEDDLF

[21] = biological target: T1, DNA topoisomerase II (Homo sapiens, UniProt P11388+Q02880); test: Poison activity at topoisomerase-2 in human HepG2 cell lysate assessed as topoisomerase-2 band depletion after 3 hrs by Western blot analysis; assay type: subcellular
[22] = tested on: L02; test: Genotoxicity in human HL7702 cells assessed as induction of DNA damage by measuring tail DNA at 50 uM after 24 hrs by alkaline comet assay (reference value: 3 +/- 1.1 %); assay type: toxicity, cell-based; conditions: l02, 24 h
[23] = tested on: L02; test: Induction of DNA damage in human HL7702 cells assessed as effect on gamma-H2AX phosphorylation at 20 uM after 24 hrs by Alexa Fluor 488 staining based fluorescence assay; assay type: cell-based; conditions: l02, 24 h
[24] = tested on: L02; test: Genotoxicity in human HL7702 cells assessed as induction of DNA damage at 50 uM after 24 hrs by alkaline comet assay; assay type: toxicity, cell-based; conditions: l02, 24 h
[25] = species: Homo sapiens; test: Induction of PI3K/AKT phosphorylation in human HL7702 cells at 25 uM after 30 hrs by Western blot analysis; assay type: cell-based
[26] = tested on: L02; test: Induction of apoptosis in human HL7702 cells assessed as increase in BAX level at 25 uM after 30 hrs by Western blot analysis; assay type: cell-based; conditions: l02, 30 h
[27] = tested on: L02; test: Induction of apoptosis in human HL7702 cells assessed as increase in PARP cleavage at 25 uM after 30 hrs by Western blot analysis; assay type: cell-based; conditions: l02, 30 h
[28] = biological target: DNA topoisomerase 2-alpha (Homo sapiens) (UniProt P11388); test: Inhibition of human topoisomerase-2alpha mediated decatenation using kinetoplast DNA as substrate after 30 mins in presence of ATP by ethidium bromide staining-based UV imaging analysis
[29] = biological target: DNA topoisomerase 2-alpha (Homo sapiens) (UniProt P11388); test: Inhibition of human topoisomerase-2alpha mediated decatenation at 50 uM using kinetoplast DNA as substrate after 30 mins in presence of ATP by ethidium bromide staining-based UV imaging analysis relative to control
[30] = tested on: HepG2; test: Cell cycle arrest in human HepG2 cells assessed as accumulation at G2/M phase at 5 uM after 24 hrs by propidium staining based flow cytometry analysis; assay type: functional
[31] = tested on: HepG2; test: Cell cycle arrest in human HepG2 cells assessed as accumulation at G2/M phase at 15 uM after 36 hrs by propidium staining based flow cytometry analysis relative to control; assay type: functional
[32] = tested on: L02; test: Cell cycle arrest in human HL7702 cells assessed as accumulation at G2/M phase at 5 uM after 30 hrs by propidium staining based flow cytometry analysis relative to control; conditions: l02, 30 h
[33] = tested on: HepG2; test: Induction of apoptosis in human HepG2 cells assessed as apoptotic cells at 5 to 15 uM measured after 36 hrs by Annexin-V/propidium iodide staining based flow cytometry analysis relative to control; assay type: functional
[34] = tested on: HepG2; test: Induction of apoptosis in human HepG2 cells assessed as apoptotic cells at 10 uM measured after 42 hrs by Annexin-V/propidium iodide staining based flow cytometry analysis relative to control; assay type: functional
[35] = Acute toxicity in C57BL6 mouse assessed as effect on body weight at 100 mg/kg, ip administered for 20 days; assay type: organism-based; conditions: in vivo, 480 h
[36] = Acute toxicity in C57BL6 mouse assessed as effect on heart at 30 mg/kg, ip administered for 20 days and measured after 20 days by hematoxylin and eosin staining based assay; assay type: organism-based; conditions: in vivo, 480 h
[37] = Acute toxicity in C57BL6 mouse assessed as effect on liver at 30 mg/kg, ip administered for 20 days and measured after 20 days by hematoxylin and eosin staining based assay; assay type: organism-based; conditions: in vivo, 480 h
[38] = Acute toxicity in C57BL6 mouse assessed as effect on lung at 30 mg/kg, ip administered for 20 days and measured after 20 days by hematoxylin and eosin staining based assay; assay type: organism-based; conditions: in vivo, 480 h
[39] = Acute toxicity in C57BL6 mouse assessed as effect on kidney at 30 mg/kg, ip administered for 20 days and measured after 20 days by hematoxylin and eosin staining based assay; assay type: organism-based; conditions: in vivo, 480 h
[40] = Therapeutic index, ratio of LD50 for acute toxicity in ip dosed C57BL6 mouse assessed as mouse survival administered as single dose for 3 days and monitored for 20 days by Bliss method to ED50 for antitumor activity against human HepG2 xenografted in ip dosed BALB/c nude mouse administered for 20 days and measured after 20 days by electronic caliper method; assay type: organism-based; conditions: in vivo, read-out: TI
[41] = biological target: T1, DNA topoisomerase II; test: Poison activity at topoisomerase-2 in human HL7702 cell lysate assessed as reduction in topoisomerase-2 band depletion at 50 uM after 3 hrs by Western blot analysis; assay type: ADME, subcellular
[42] = tested on: HepG2; test: Induction of DNA damage in human HepG2 cells assessed as increase in H2AX phosphorylation at 20 uM after 24 hrs by Alexa Fluor 488 staining based fluorescence assay; assay type: functional, cell-based
[43] = tested on: L02; test: Genotoxicity in human HL7702 cells assessed as induction of DNA damage at 50 uM after 24 hrs in combination of teniposide by alkaline comet assay; assay type: toxicity, cell-based; conditions: l02, 24 h
[44] = tested on: L02; test: Cytotoxicity against human HL7702 cells assessed as inhibition of cell proliferation measured after 48 hrs by MTT assay relative to teniposide; assay type: cell-based; conditions: l02, 48 h
[45] = tested on: MRC5; test: Cytotoxicity against human MRC5 cells assessed as inhibition of cell proliferation measured after 48 hrs by MTT assay relative to teniposide; assay type: cell-based; conditions: mrc5, 48 h
[46] = tested on: HMEC; test: Cytotoxicity against human HMEC cells assessed as inhibition of cell proliferation measured after 48 hrs by MTT assay relative to teniposide; assay type: cell-based

SMILES | IC50 [1] [µM] | IC50 [2] [µM] | IC50 [3] [µM] | IC50 [4] [µM] | IC50 [5] [µM] | IC50 [6] [µM] | IC50 [7] [µM] | IC50 [8] [µM] | Activity [14] [%] | LD50 at 480 h [16] [mg/kg] | ED50 [17] [mg/kg] | Activity [18] [mm3] | inhibition in vivo at 30 mg/kg [19] [%] | inhibition [20] | IC50 [21] [µM] | Activity [22] [%] | Activity [23] | Activity [25] | Activity [26] | Activity [27] | other results
COc1cc([C@@H]2c3cc4c(cc3[C@@H](O[C@@H]3O[C@@H]5CO[C@@H](c6cccs6)O[C@H]5[C@H](O)[C@H]3O)[C@H]3COC(=O)[C@H]23)OCO4)cc(OC)c1O [TENIPOSIDE] | 12.4 | 11.1 | 12.2 | 11.5 | 4.3 | 8.2 | 14.9 | 22.3 | 88 | 46.1 | 40.5 | 259.15 | 48 | Active | 62.7 | 98.3 | Toxic | inactive | Toxic | Toxic | Activity [9]: >20%; Activity [10]: 86%; Activity [11]: 84%; Activity [12]: Toxic; Activity [13]: 71%; Activity [15]: Toxic; Activity [24]: Toxic
COc1cc([C@@H]2c3cc4c(cc3[C@@H](O[C@@H]3O[C@@H]5CO[C@@H](c6cccs6)O[C@H]5[C@H](OC(=O)CSc5nc6cc(F)ccc6s5)[C@H]3NC(=O)CSc3nc5cc(F)ccc5s3)[C@H]3COC(=O)[C@H]23)OCO4)cc(OC)c1O | 122 | 10.8 | 122 | 121 | 10.3 | 12.6 | 152 | 120 | 30 | 208 | 32.6 | 446.35 | 73 | Active | 116.5 | 7.2 | Toxic | Active | Non-Toxic | Non-Toxic | inhibition [28]: Dose-dependent effect; inhibition [29]: 100%; Activity [30]: inactive; Activity [31]: 78%; Activity [32]: 40%; Activity [33]: 30 - 55%; Activity [34]: 55%; Activity [35]: Non-Toxic; Activity [36]: Non-Toxic; Activity [37]: Non-Toxic; Activity [38]: Non-Toxic; Activity [39]: Non-Toxic; selectivity ratio at 20 days [40]: 6.39; Activity [41]: Not Active; Activity [42]: Active; Activity [43]: Toxic; fold change (FC) [44]: 10; fold change (FC) [45]: 10; fold change (FC) [46]: 10
